Laboratory results: the NIST ThermoML archive (doi:10.1021/acs.jced.8b00855)
Numbers after ± are expanded uncertainties.

Experiments:
[1] = Liquid, Ebulliometric method (Recirculating still)
[2] = Boiling temperature at pressure P; details: Liquid, Ebulliometric method (Recirculating still)

SMILES	vapor or sublimation pressure ([1]; 367.9 K) [kPa]	vapor or sublimation pressure ([1]; 370.6 K) [kPa]	vapor or sublimation pressure ([1]; 373.6 K) [kPa]	vapor or sublimation pressure ([1]; 375.1 K) [kPa]	vapor or sublimation pressure ([1]; 379.3 K) [kPa]	Boiling temperature at pressure P ([2]; 72.04 kPa) [°C]	Boiling temperature at pressure P ([2]; 78.83 kPa) [°C]	Boiling temperature at pressure P ([2]; 85.94 kPa) [°C]	Boiling temperature at pressure P ([2]; 89.82 kPa) [°C]	Boiling temperature at pressure P ([2]; 101.39 kPa) [°C]	vapor or sublimation pressure ([1]; 403.4 K) [kPa]	vapor or sublimation pressure ([1]; 405.8 K) [kPa]	vapor or sublimation pressure ([1]; 408.4 K) [kPa]	vapor or sublimation pressure ([1]; 409.8 K) [kPa]	vapor or sublimation pressure ([1]; 413.4 K) [kPa]	Boiling temperature at pressure P ([2]; 71.47 kPa) [°C]	Boiling temperature at pressure P ([2]; 78.36 kPa) [°C]	Boiling temperature at pressure P ([2]; 85.5 kPa) [°C]	Boiling temperature at pressure P ([2]; 89.49 kPa) [°C]	Boiling temperature at pressure P ([2]; 102 kPa) [°C]
COC1CCCC1 [methoxycyclopentane]	71.5 ± 2.4	77.95 ± 2.5	85.5 ± 2.6	89.69 ± 2.9	101.79 ± 2.9	95.1 ± 1	98.1 ± 1	100.2 ± 1	102.2 ± 1	106.1 ± 1										
OC1CCCC1 [cyclopentanol]											71.5 ± 2.7	77.95 ± 2.8	85.5 ± 2.9	89.69 ± 3.3	101.79 ± 3.4	130.2 ± 1	133.1 ± 1	135.5 ± 1	136.2 ± 1	140.5 ± 1
